Data set [1] in a line: In vivo pharmacokinetic study in rats. The conditions noted are these: male, SD, rat, plasma. Here is the method:
SD male rats aged 7 to 10 weeks were selected. The doses for intravenous and oral administration were 1 mg/kg and 2.5 mg/kg, respectively. The rats were fasted for at least 12 hours before the administration, and resumed feeding 4 hours after the administration. The rats had free access to water throughout the assay period.
On the day of the assay, the animals in the intravenous group were administrated the corresponding compound through a single injection in the tail vein at an administration volume of 5 mL/kg; the oral group were administrated the corresponding compound through a single intragastric gavage at an administration volume of 10 mL/kg. The animals were weighed before administration, and the administration volume was calculated based on the body weight. The time for collecting samples was: 0.083 (the injection group), 0.25, 0.5, 1, 2, 4, 6, 8, 24 h. About 200 μL of whole blood was collected from the jugular vein at each time point to prepare plasma for concentration determination by high-performance liquid chromatography-tandem mass spectrometry (LC-MS/MS). All animals were euthanized by CO2 anesthesia after collecting the PK samples at the last time point. The plasma concentrations were processed by non-compartmental model of WinNonlin™ Version 6.3 (Pharsight, Mountain View, Calif.) pharmacokinetic software, and the pharmacokinetic parameters were calculated by the linear logarithm trapezoidal method.

The target of the next data set is T1, FLT3(K663Q) (Homo sapiens, UniProt P36888, K663Q).
T1 sequence (P36888 27-993 K663Q): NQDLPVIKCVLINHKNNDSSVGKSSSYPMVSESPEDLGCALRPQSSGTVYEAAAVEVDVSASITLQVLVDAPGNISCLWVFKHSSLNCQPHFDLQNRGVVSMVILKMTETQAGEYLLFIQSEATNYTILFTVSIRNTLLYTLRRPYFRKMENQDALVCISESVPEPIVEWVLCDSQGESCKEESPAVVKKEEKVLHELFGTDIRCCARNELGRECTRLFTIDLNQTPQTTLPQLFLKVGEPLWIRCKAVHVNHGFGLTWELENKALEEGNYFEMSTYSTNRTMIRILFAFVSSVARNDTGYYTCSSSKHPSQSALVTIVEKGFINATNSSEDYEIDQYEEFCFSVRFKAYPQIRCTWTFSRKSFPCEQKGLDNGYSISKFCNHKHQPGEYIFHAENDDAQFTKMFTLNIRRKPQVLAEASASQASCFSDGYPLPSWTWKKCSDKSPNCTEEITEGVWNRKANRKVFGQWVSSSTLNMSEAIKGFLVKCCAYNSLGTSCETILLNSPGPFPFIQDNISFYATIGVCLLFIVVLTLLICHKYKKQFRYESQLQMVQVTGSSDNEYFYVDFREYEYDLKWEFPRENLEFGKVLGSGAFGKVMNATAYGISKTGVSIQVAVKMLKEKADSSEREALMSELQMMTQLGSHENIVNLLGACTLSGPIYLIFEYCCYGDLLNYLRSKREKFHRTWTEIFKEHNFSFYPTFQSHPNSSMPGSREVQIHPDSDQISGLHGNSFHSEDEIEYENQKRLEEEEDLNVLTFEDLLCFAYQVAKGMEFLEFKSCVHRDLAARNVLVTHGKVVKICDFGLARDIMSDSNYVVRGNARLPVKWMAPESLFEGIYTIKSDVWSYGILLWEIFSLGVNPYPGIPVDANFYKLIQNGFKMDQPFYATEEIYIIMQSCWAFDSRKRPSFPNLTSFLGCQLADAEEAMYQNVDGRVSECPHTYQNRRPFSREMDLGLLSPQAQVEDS
The data set can be described thus: KINOMEscan Kd determination, FLT3 mutant. It counts as binding. Particulars: ratio of Kd versus compound B. Here is the method:
The assay was carried out using KINOMEscan™ technology. The assay compounds were stored in 100% DMSO. The assay was carried out by means of 3-fold dilution and 11-point fitting. All compounds used for Kd determination were dispersed by ultrasound, then directly diluted and tested. All reactions were carried out in a 384-well polypropylene plate. Each portion has a final volume of 0.02 ml. The plate was incubated with shaking at room temperature for 1 hour, and then processed. The kinase concentration in the eluent was finally determined by qPCR method. Kd was obtained by fitting.

For orientation: AUC(0-t) means the area under the concentration-time curve up to a stated or last time point. A high value points to more exposure. By clearance is commonly meant the volume of plasma or blood freed of the substance per unit of time. The low end stands for a low capacity for elimination, the high end for a high capacity for elimination. A word on the half-life: it is the time needed for the level to fall by half in the phase considered. The term bioavailability denotes the share of a dose that reaches the circulation, judged against a reference dose that is usually intravenous. Read a low bioavailability as little systemic uptake. In data set [1] (iv, injection 1 mg/kg), `CCc1nc(C(N)=O)c(Nc2ccc(N3CCC4(CCN(C)CC4)CC3)c(C)c2)nc1NC1CCOCC1` showed an area under the curve AUC(0-t) of 0.457 µM·h, a clearance of 61.2 mL/min/kg and a half-life of 2.99 h. For the same compound, the Vd in data set [1] (iv, injection 1 mg/kg, read-out: Vdss) was found to be 13.3 L/kg. In data set [1] (oral administration 2.5 mg/kg), this compound displayed an exposure AUC(0-t) of 0.51 µM·h and a bioavailability of 44.7%. For the same compound, the “activity for FLT3 (K663Q) higher than that of compound B” value on FLT3(K663Q) is given as 5.9 times.
